≈ marks a conversion by molar mass, not a printed value. Where a name gives a salt, the structure may show the parent alone.
How the values were obtained:
[1] = tested on: Protease XXIII: from Aspergillus oryzae (Enzyme A); experiment: Homogeneous aqueous enzymatic resolution (ester hydrolysis) with Enzyme A; conditions: 100 mg enzyme A, 10 mmol ester in 100 ml 0.2 M phosphate buffer pH 7.0, 20-22° C., 20 hours
Description: 10.0 millimole (mmol) of ibuprofen substrate ester 1 (the methyl sulfonate derivative) was dissolved in 100 ml of 0.2 M phosphate buffer of the appropriate cation (sodium or potassium, to be the same as the substrate counterion) at pH 7.0. 100 mg of enzyme A, as the
commercial preparation, was added directly to this solution, and the reaction mixture was capped and then shaken briefly until all the enzyme preparation had dispersed or dissolved. The reaction mixture was then allowed to stand at ambient temperature (20°-22° C.) for 20 hours. […] The combined organic layers were backwashed twice with one volume of water, once with one volume of saturated NaCl solution, and then dried over MgSO4.
Evaporation of the ether under reduced pressure left the resolved ibuprofen acid product; no other purification was performed. The optical rotation was measured in EtOH at a concentration c=1.0 for the ibuprofen acid product.
In this Example, 0.010 mol of ibuprofen ester 3 (the propyl sulfonate derivative) was dissolved in 100 ml 0.2 M sodium phosphate buffer at pH 7.8, and 150 mg of the commercial enzyme A preparation was added. The reaction was then handled as described for Examples 6.2.1.1-6.2.1.7.
In this Example, 0.010 mol of ibuprofen ester 2 (the ethyl sulfonate ester in the form of its potassium salt) were dissolved in 125 ml of 0.2 M sodium phosphate buffer at pH 7.0, and 150 mg of enzyme A was added to the reaction mixture as the commercially supplied preparation. The reaction was allowed to proceed for 18 hours, and the resulting product mixture was then worked-up as described above for Examples 6.2.1.1-6.2.1.7.
150 mg of Protease XXIII (A), as the commercially available preparation, was added to the reaction mixture, the reaction vessel was capped, and the entire heterogeneous reaction mixture was shaken in a wrist-action shaker for 18 hours. […] This mixture was then extracted twice with 200 ml of diethyl ether. The combined organic layers were backwashed twice with one volume of water, once with one volume of saturated NaCl, and the organic phase was then dried over MgSO4. Evaporation of the ether under reduced pressure left the resolved naproxen acid. No further purification was performed. The optical rotation of the product was measured in CHCl3 at a concentration c=1.0.
0.010 mol of naproxen ester 8 (the potassium salt of the ethyl sulfonate ester) was dispersed in 125 ml of 0.2 M sodium phosphate buffer at pH 7.8. 150 mg of enzyme A, as the commercially available preparation, were added, and the reaction handled as described in Example 6.2.1.1.
0.010 mol of ibuprofen ester 6 (the compound) were dissolved in 100 ml of 0.2 M sodium phosphate buffer at pH 7.0. 100 mg of enzyme A was added as the commercially available preparation, and the reaction handled as described above in Examples 6.2.1.1-6.2.1.7.
2.0 gm (0.0058 mole) of naproxen ester 9 (the sulfomethyl compound) was dissolved in 400 ml of 50 mM sodium phosphate buffer at pH 7.5. To the reaction were added 100 mg of Protease XXIII (A) as the commercially available preparation. After the enzyme had dissolved, the reaction mixture was incubated at 25 degrees for 16 hours. The reaction mixture was then acidified to pH 1-2 by the careful dropwise addition of concentrated HCl, and then it was extracted with ether (3×150 ml). The aqueous layer was retained. The combined organic layers were backwashed with water (2×100 ml), and these aqueous washings were added to the previously retained aqueous layer of the reaction. The ether layer was then washed once with 100 ml of brine, and dried over MgSO4.

[2] = target: T1, Protease XVI: from Bacillus subtilis (Enzyme C) (Bacillus subtilis, UniProt P04189); experiment: Homogeneous aqueous enzymatic resolution (ester hydrolysis) with Enzyme C; type: biochemical; conditions: acid product; 100 mg enzyme C, 10 mmol ester in 100 ml 0.2 M phosphate buffer pH 7.0, 20-22° C., 20 hours
T1 sequence (P04189 107-381): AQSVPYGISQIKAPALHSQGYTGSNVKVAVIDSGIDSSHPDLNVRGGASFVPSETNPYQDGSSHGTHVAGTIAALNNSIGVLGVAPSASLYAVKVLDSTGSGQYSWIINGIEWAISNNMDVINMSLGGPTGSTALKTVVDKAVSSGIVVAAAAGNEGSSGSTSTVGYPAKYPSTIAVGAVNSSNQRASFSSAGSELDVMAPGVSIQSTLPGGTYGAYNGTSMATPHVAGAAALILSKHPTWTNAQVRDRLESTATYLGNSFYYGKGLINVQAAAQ

[3] = target: T2, Protease VIII: "Subtilopeptidase A" (subtilisin Carlsberg) (Enzyme B) (Bacillus licheniformis, UniProt P00780); experiment: Homogeneous aqueous enzymatic resolution (ester hydrolysis) with Enzyme B; type: biochemical; conditions: 100 mg enzyme B, 10 mmol ester in 100 ml 0.2 M phosphate buffer pH 7.0, 20-22° C., 20 hours
T2 sequence (P00780 106-379): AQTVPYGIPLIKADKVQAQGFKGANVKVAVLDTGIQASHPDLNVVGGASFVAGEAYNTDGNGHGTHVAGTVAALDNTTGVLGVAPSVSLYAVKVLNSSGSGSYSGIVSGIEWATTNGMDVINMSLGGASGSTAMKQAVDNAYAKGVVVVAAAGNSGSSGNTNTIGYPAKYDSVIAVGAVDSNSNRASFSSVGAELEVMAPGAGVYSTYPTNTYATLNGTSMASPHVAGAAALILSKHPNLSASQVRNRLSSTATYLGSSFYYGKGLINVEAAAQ

[4] = target: T3, Protease XXVII: "Nagarse" (Enzyme D) (Bacillus amyloliquefaciens, UniProt P00782); experiment: Homogeneous aqueous enzymatic resolution (ester hydrolysis) with Enzyme D; type: biochemical; conditions: 100 mg enzyme D, 10 mmol ester in 100 ml 0.2 M phosphate buffer pH 7.0, 20-22° C., 20 hours
T3 sequence (P00782 108-382): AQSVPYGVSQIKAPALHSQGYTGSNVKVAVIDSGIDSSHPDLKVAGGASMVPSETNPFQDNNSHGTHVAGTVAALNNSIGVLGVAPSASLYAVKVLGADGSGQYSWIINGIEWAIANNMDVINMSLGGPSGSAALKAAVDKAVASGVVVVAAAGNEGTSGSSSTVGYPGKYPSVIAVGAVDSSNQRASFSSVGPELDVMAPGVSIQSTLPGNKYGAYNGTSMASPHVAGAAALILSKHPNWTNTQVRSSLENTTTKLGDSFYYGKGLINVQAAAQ

[5] = tested on: protease Prozyme 6 (Enzyme F); experiment: Homogeneous aqueous enzymatic resolution (ester hydrolysis) with Enzyme F; type: biochemical, Asperqillus oryzae; conditions: 100 mg protease (F), 3.22 gm ester in 100 ml 0.2 M sodium phosphate buffer pH 7.0, room temperature, 20 hours
Description: (Prozyme 6) (F) added. The enzymatic reaction mixtures were capped and briefly shaken until all the substrate had dissolved, and the enzyme had completely dissolved or dispersed. […] Evaporation of the ether left a white solid. Rotations were measured at c=1 in CHCl3.
The enzymatic reaction mixtures were capped and briefly shaken until all the substrate had dissolved, and the enzyme had completely dissolved or dispersed. […] Evaporation of the ether left a white solid. Rotations were measured at c=1 in CHCl3.
The reaction was started by adding 100 mg of the protease (F) from the fungus Asperqillus oryzae (from Amano Enzyme Corporation, Prozyme 6, 60,000 units per mg of solid).
After 20 hours at room temperature, the solution was acidified to pH 2 and extracted with 3 volumes of diethyl ether. The aqueous phase was saved for subsequent workup. The ether phase was washed with two volumes of distilled water and then one volume of saturated sodium chloride, and then it was dried over MgSO4 and subsequently evaporated to dryness. The resolved ibuprofen product recovered was 930 mg of white powder, indicating 45% conversion of racemic ester to acid. The optical rotation was -0.580° (measured at c=1 in ethanol), indicating the R isomer of ibuprofen.
35 mg of protease Enzyme F, as the commercial preparation Prozyme 6, were added to the aqueous solution. The reaction flask was capped, and briefly shaken until all the enzyme had dissolved or dispersed. […] The resulting mixture was diluted with one volume of water and was extracted with diethyl ether (2 times 200 ml). The ether layers were combined and backwashed with water (2 times 200 ml), saturated NaCl solution (200 ml), and then dried over MgSO4.
In this control run, a 0.5 M ester solution of (1) was prepared in 325 ml of 0.1 M sodium phosphate buffer (pH 7.0). The reaction was started by adding 3 gm of the above enzyme (F). The pH was controlled at 7.0 with 8.22 M sodium hydroxide. After 6.49 hours at 30° C., 6.63 ml of hydroxide were added, indicating 37.7% conversion. […]

[6] = tested on: protease Prozyme 6 (Enzyme F); experiment: Asymmetric hydrolysis in an extractive dispersion reactor (hexane) with Enzyme F; type: biochemical, Asperqillus oryzae; conditions: 100 mg Prozyme 6, 3.38 gm ester in 100 ml 0.2 M sodium phosphate buffer pH 7.0 and 100 ml hexane, room temperature, 3.5 hours
Description: In this Example, the hexane was dispersed in the reaction vessel to extract the inhibitory ibuprofen acid as it is formed. The reaction was started by adding 100 mg of the protease from the fungus Asperqillus oryzae (from Amano Enzyme Corporation, Prozyme 6, 60,000 units per mg of solid).
After 3.5 hours at room temperature with vigorous stirring, the solution was acidified to pH 2 and extracted with 2 volumes of hexane. The aqueous phase was saved for subsequent workup. The hexane phase was dried over MgSO4 and evaporated to dryness. The resolved ibuprofen product so recovered consisted of 490 mg of white powder, indicating 24% conversion. The optical rotation was -0.568° (c=1.015 in ethanol), indicating the R isomer of ibuprofen.

[7] = target: T3, Protease XXVII: "Nagarse" (Enzyme D); experiment: Rates of hydrolysis of the two enantiomers (pH stat), Enzyme D; type: biochemical; conditions: 50 mM ester, 50 mM buffer pH 7.6, 0.1 ml of 50 mg/ml enzyme D
Description: (§1) 15 ml of a solution containing one enantiomer of the ester at a concentration of 50 mM, and Na3 PO4 buffer at 50 mM and pH 7.6 was observed using a pH stat device. 0.1 ml of a 50 mg/ml solution of enzyme D, made up from the commercially available preparation in 50 mM Na3 PO4 buffer at pH 7.6, were added. Rates of hydrolysis of both enantiomers of the ester compound were determined for the enzyme. The ratio of the rates of hydrolysis for the two enantiomers for the two enantiomers with respect to the enzyme indicate the stereospecificity of that enzyme's hydrolytic action on the racemic mixture of the ester. No evidence for the hydrolysis of the thioacetyl ester portion of the substrate molecule was found.

[8] = tested on: Protease XXIV: bacterial protease (Enzyme H); experiment: Rates of hydrolysis of the two enantiomers (pH stat), Enzyme H; type: biochemical; conditions: for Rate (rate of hydrolysis): 50 mM ester, 50 mM buffer pH 7.6, 0.1 ml of 50 mg/ml Enzyme H
Description: as §1, with “Enzyme H,” for “enzyme D,”, “acetylthio” for “thioacetyl”

[9] = target: T2, Protease VIII: "Subtilopeptidase A" (subtilisin Carlsberg) (Enzyme B); experiment: Rates of hydrolysis of the two enantiomers (pH stat), Enzyme B; type: biochemical; conditions: 50 mM ester, 50 mM buffer pH 7.6, 0.1 ml of 50 mg/ml enzyme B
Description: as §1, with “Na” for “Na3 PO4”, “B,” for “D,”, “acetylthio” for “thioacetyl”

[10] = tested on: Protease XXIII: from Aspergillus oryzae (Enzyme A); experiment: Rates of hydrolysis of the two enantiomers (pH stat), Enzyme A; type: biochemical; conditions: for Rate (rate of hydrolysis): 50 mM ester, 50 mM buffer pH 7.6, 0.1 ml of 50 mg/ml enzyme A
Description: as §1, with “and Na” for “and Na3 PO4”, “enzyme A,” for “enzyme D,”, “the acetylthio” for “the thioacetyl”

[11] = tested on: Protease XIV: from Streptomyces griseus (Enzyme G); experiment: Rates of hydrolysis of the two enantiomers (pH stat), Enzyme G; type: biochemical; conditions: for Rate (rate of hydrolysis): 50 mM ester, 50 mM buffer pH 7.6, 0.1 ml of 50 mg/ml enzyme G
Description: as §1, with “solution of protease enzyme G,” for “solution of enzyme D,”, “protease enzyme G, made up” for “of enzyme D, made up”, “50 mM Na buffer at” for “50 mM Na3 PO4 buffer at”, “for the protease enzyme. The” for “for the enzyme. The”, “of the acetylthio ester portion” for “of the thioacetyl ester portion”

[12] = Solubility by absorbance of saturated solutions at 262 nm; type: physicochemical; conditions: saturated solution, pH 7, 5 mM phosphate buffer, room temperature

Structure (SMILES): CC(C)Cc1ccc(C(C)C(=O)OCS(=O)(=O)O)cc1 (centres unmarked) [Compound 1, Sodium Salt of 4-Sulfomethyl Ester of 2-(4-Isobutylphenyl)propanoic Acid]
- % CONVERSION [1]: 37.9%
- % e.e. ([1]; acid product): > 99%
- % e.e. [2]: 70.7%
- % CONVERSION [3]: 29.1%
- % e.e. ([3]; acid product): 44.6%
- % CONVERSION [4]: 34.0%
- % e.e. ([4]; acid product): 37.7%
- conversion of racemic ester to acid [5]: 45%
- conversion [6]: 24%

Structure (SMILES): CC(=O)SC[C@H](C)C(=O)OCS(=O)(=O)O [Compound 15, Potassium Salt of the Sulfomethyl Ester of L-(+)-S-3-Acetylthio-2-methylpropanoic Acid]
- Rate (rate of hydrolysis) [7]: 29 umols/hr/mg
- Rate (rate of hydrolysis) [8]: 65 umols/hr/mg
- Rate Ratio L/D ([8]; Enzyme H, pH 7.6): 1.1
- Rate (rate of hydrolysis) [9]: 135 umols/hr/mg
- Rate (rate of hydrolysis) [10]: 12 umols/hr/mg
- Rate Ratio L/D ([10]; enzyme A, pH 7.6): 2.3
- Rate (rate of hydrolysis) [11]: 105 umols/hr/mg
- Rate Ratio L/D ([11]; enzyme G, pH 7.6): 1.7

Structure (SMILES): CC(=O)SC[C@@H](C)C(=O)OCS(=O)(=O)O [Compound 14, Potassium Salt of the Sulfomethyl Ester of D-(-)-S-3-Acetylthio-2-methylpropanoic Acid]
- Rate (rate of hydrolysis) [7]: 27 umols/hr/mg
- Rate (rate of hydrolysis) [8]: 61 umols/hr/mg
- Rate (rate of hydrolysis) [9]: 65 umols/hr/mg
- Rate (rate of hydrolysis) [10]: 5.3 umols/hr/mg
- Rate (rate of hydrolysis) [11]: 63 umols/hr/mg

Structure (SMILES): COCCOC(=O)C(C)c1ccc(CC(C)C)cc1 (centres unmarked) [Methoxyethyl ester of ibuprofen]
- Solubility [12]: 180 µM (≈ 47.6 µg/mL)

Reference: patent US5057427A, “Method for resolution of stereoisomers” (Sepracor, Inc., priority 1988, dated 1991)
